Test results: paper PMC7216909 (Chembiochem, 2020)

Target: T1, FOYE-1 (Ferrovum sp. JA12, UniProt A0A0R0LNE8)
T1 sequence (A0A0R0LNE8 1-354): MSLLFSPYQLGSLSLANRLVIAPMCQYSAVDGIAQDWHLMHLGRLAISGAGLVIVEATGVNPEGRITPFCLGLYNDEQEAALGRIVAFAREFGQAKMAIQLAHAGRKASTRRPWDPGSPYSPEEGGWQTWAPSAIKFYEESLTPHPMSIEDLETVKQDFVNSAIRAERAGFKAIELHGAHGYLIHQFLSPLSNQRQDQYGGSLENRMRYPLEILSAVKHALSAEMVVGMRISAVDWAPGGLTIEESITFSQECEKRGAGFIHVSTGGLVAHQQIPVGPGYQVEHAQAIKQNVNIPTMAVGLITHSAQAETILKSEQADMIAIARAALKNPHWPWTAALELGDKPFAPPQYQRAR
Test: FMN quantification at […] nm in purified protein
Assay type: binding
Details: co-purified flavin cofactor; partly saturated holoprotein

## Cc1cc2nc3c(=O)[nH]c(=O)nc-3n(C[C@H](O)[C@H](O)[C@H](O)COP(=O)(O)O)c2cc1C [FMN]
  FMN saturation: found to be only partially saturated with the flavin mononucleotide (FMN) cofactor
